Test in all cases: NCI anticancer screen, dose series, 48 h
In test [1] the test system is U251 CNS.
The test system of test [2] is SNB-19 CNS.
Test [3] deals with UACC-62 melanoma.
Test [4] has as its system NCI/ADR-RES ovarian.
Test [5] deals with NCI-H226 lung.
The subject of test [6] is MALME-3M melanoma.
Test [7] concerns KM12 colon.
Test [8] relates to NCI-H23 lung.
Test [9] deals with HOP-92 NSCLC.
Test [10] relates to HT29 colon.

Here are results for 29 molecules from PubChem BioAssay (NCI).

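All cell lines were grown in 96-well plates and treated with compound for 48 hours. GI50 marks 50% less growth. TGI: concentration producing complete growth inhibition.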 Where a SMILES comes first, the peptide text is derived from it. The star is where a group is joined. ONb = O=[N+]([O-])c1ccc(CO*)cc1; Boc = CC(C)(C)OC(=O)*

In the case of `CCOC(=O)c1ccc(C(=O)/C(C(C)=O)=C2\CCCN2C)n1C`, the TGI in test [1], in test [2], in [3], in test [4], in [5] and in test [6] was more than 100 µM in each case. Also, the TGI in [7] and in test [8] was more than 100 µM each time.

In the case of `Cc1c2cnccc2c(C)c2c1c1ccccc1n2CCCCCCNCc1ccccc1`, the TGI turned out to be 3.79 µM in test [1]; 3.75 µM in [2]; 4.16 µM in test [3]; 4.61 µM in test [6]; 3.64 µM in test [9]; 3.08 µM in [7]. Besides, the TGI in [10] came out at 3.13 µM; in [8] it was 3.64 µM.

`CCCCCCCCCCCCCC[S+](C)C`: the TGI was 2.28 µM in [1]; 2.84 µM in test [2]; 6.78 µM in test [3]; more than 10 µM in test [4]; 5.13 µM in test [5]; 3.67 µM in test [9]. The TGI worked out at 2.95 µM in [7], 4.93 µM in test [10] and 4.09 µM in [8].

As to `CN(C)c1nncc2[nH]cnc12`, the TGI in test [1], in [2], in test [3], in [4], in test [5] and in [7] was more than 100 µM in each case. The TGI in test [10] and in [8] was more than 100 µM throughout.

Regarding `N#C/C(=C\c1cc(Cl)cc(Cl)c1)c1ccccn1`, the TGI in [1] was more than 100 µM; in test [2] it was more than 100 µM; in [3], more than 100 µM; in test [4], more than 100 µM; in test [5], 85.7 µM; in [6] it was more than 100 µM. The TGI in [7], in test [10] and in test [8] was more than 100 µM in each case.

`Cc1ccc(-n2[nH]nc(C#N)c2=O)cc1`: the TGI in test [1], in test [2], in test [3], in [4], in test [5] and in test [6] was more than 100 µM throughout. The TGI in test [7], in test [10] and in [8] was more than 100 µM each time.

For `O=C(/C=C/c1ccc(/C=C/C(=O)c2ccc(O)cc2)cc1)c1ccc(O)cc1`, the TGI in test [1], in test [2], in [3], in [4], in test [5] and in test [9] was more than 100 µM each time. The TGI in test [7], in [10] and in test [8] was more than 100 µM in each case.

As to `CN1CCC(CN2c3ccccc3Sc3ccccc32)CC1`, the TGI in [1] is 29.2 µM; in [2], 29.3 µM; in [3], 28.2 µM; in [5] it was 28.8 µM; in [9], 17.6 µM; in test [7] it was 29.6 µM. Besides, the values for the TGI in test [10] and in test [8] were 25.3 µM and 30 µM, respectively.

As for `COC1(OC)CC(CO)(CNc2cc(Cl)nc(N)n2)C1`, the TGI in [1], in [2], in test [3], in test [4], in test [5] and in test [6] was more than 100 µM throughout. Also, the TGI in test [7], in test [10] and in test [8] was more than 100 µM each time.

`CC(C)C1=CCC2C(=C1)CCC1C(C)(C(=O)O)CCCC21C` (stereo unspecified) (tested in a mixture with another compound): the TGI in test [1], in test [3], in test [4], in [5], in test [6] and in [9] was more than 100 µM each time. In addition, the TGI in test [7], in test [10] and in test [8] was more than 100 µM each time.

Turning to `O=C1/C(=C/c2ccccc2O)N=C(c2ccccc2)N1c1nc2ccccc2s1`, the TGI was 28.7 µM in test [1]; 52.1 µM in [4]; 77.8 µM in test [5]; more than 100 µM in [9]; more than 100 µM in [7]; 74 µM in test [10]. Besides, in test [8], the TGI was found to be 38.5 µM.

For `CNC(=O)N(C)COC`, the TGI in test [1], in test [2], in [3], in test [5], in test [6] and in test [7] was more than 100 µM throughout. The molecule also showed a TGI in [10] of more than 100 µM.

In the case of `O=C(O)c1cnc2[nH]ccn2c1=O`, the TGI in test [1], in test [2], in [3], in test [4], in test [5] and in test [6] was more than 100 µM in each case. In addition, the TGI in test [9], in [10] and in test [8] was more than 100 µM each time.

In the case of `CC(C)CC(NC(=O)OC(C)(C)C)C(=O)NC(CCC(=O)OCc1ccc([N+](=O)[O-])cc1)C(=O)OCc1ccc([N+](=O)[O-])cc1` (stereo not drawn) (Boc-Leu-Glu(ONb)-ONb; configuration not given here), the TGI in [1] was more than 100 µM; in test [2], more than 100 µM; in test [3], 99.3 µM; in [4], more than 100 µM; in test [6], more than 100 µM; in test [9] it was more than 100 µM. Moreover, the TGI in test [10] was found to be 94.7 µM; in test [8], 59.4 µM.

Turning to `COc1ccc2oc(OC)c(CC=C(C)C)c(=O)c2c1C`, the TGI in test [1], in [2], in [3], in test [4], in test [5] and in test [6] was more than 100 µM each time. Besides, the TGI in test [7], in test [10] and in [8] was more than 100 µM throughout.

Take `CCCCCCCCCCCCCC[n+]1ccc2c(C)c3c(c(C)c2c1)c1cc(O)ccc1n3CC`: the GI50 in test [3] was 0.468 µM; in test [4] it was 5.13 µM; in [5], 0.418 µM; in test [6] it was 0.233 µM; in test [9], 0.301 µM; in test [8], 0.223 µM. Besides, the TGI in test [3] came to 1.87 µM; in [4], 32.3 µM; in [5], 1.96 µM; in test [6] it was 0.706 µM; in test [9], 1.32 µM; in test [8], 1.02 µM.

On to `O=S(=O)(O)ON=C1c2ccccc2-c2ccccc21`, for which the TGI in test [1], in test [2], in test [3], in [4], in test [5] and in test [9] was more than 100 µM throughout. Besides, the TGI in [7], in test [10] and in [8] was more than 100 µM in each case.

`CC(=O)OCC1OC(SC2OC(COC(C)=O)C(OC(C)=O)C(OC(C)=O)C2OC(C)=O)C(OC(C)=O)C(OC(C)=O)C1OC(C)=O` (stereo unspecified): the TGI in test [1], in [2], in [3], in test [4], in test [5] and in test [6] was more than 100 µM in each case. In addition, the TGI in [7], in [10] and in [8] was more than 100 µM throughout.

Take `O=c1oc2cc(O)ccc2c(O)c1C(c1cccnc1)c1c(O)c2ccc(O)cc2oc1=O`: the TGI in test [1], in test [2], in test [3], in [4], in test [5] and in test [9] was more than 100 µM in each case. The TGI in test [7], in [10] and in [8] was more than 100 µM each time.

Take `CCCCNC(=S)Nc1nc(C(=O)NNC(=S)NC2CCCCC2)cs1`: the TGI in [1], in [3], in [4], in test [5], in test [6] and in [9] was more than 100 µM each time. Also, the TGI in [7], in test [10] and in [8] was more than 100 µM in each case.

Consider `CN1C(=O)[C@@H]2[C@@H]3c4ccccc4N(S(=O)(=O)C(F)(F)F)[C@@H]3c3[nH]c4ccccc4c3[C@@H]2C1=O`, for which the TGI in test [1] is more than 100 µM; in test [2], more than 100 µM; in test [3] it was more than 100 µM; in test [4], more than 100 µM; in [5] it was more than 100 µM; in [9], 35.4 µM. In addition, the TGI in test [10] and in test [8] was more than 100 µM throughout.

Take `N#C/C(=C\NC(=S)c1ccncc1)c1nc2ccccc2s1`: the TGI in test [1], in test [2], in test [3], in test [4], in test [5] and in [9] was more than 100 µM throughout. Also, the TGI in [7], in test [10] and in [8] was more than 100 µM throughout.

Take `CSCCCNC(=O)c1csc(-c2csc(C(CNC(=O)OC(C)(C)C)CNC(=O)OC(C)(C)C)n2)n1`: the TGI in test [1] was 71.5 µM; in [2], more than 100 µM; in test [3], 40.4 µM; in test [4], more than 100 µM; in [5], more than 100 µM; in test [9], more than 100 µM. Moreover, the TGI in test [7] and in test [8] was more than 100 µM each time.

On to `O=C(/C=C/c1ccc(O)c(O)c1)c1cc(O)cc(O)c1`, for which the TGI was 22.7 µM in [1]; 28.5 µM in [2]; 26.1 µM in test [3]; 47.7 µM in test [4]; 51.5 µM in test [5]; 27.6 µM in [6]. The figures for the TGI in [9], in [10] and in test [8] were 26.8 µM, 39 µM and 26.4 µM, respectively.

With `C/C(=C/C(=O)Nn1c(Cc2ccccc2)n[nH]c1=O)C(=O)O`, the TGI in test [1], in [2], in test [3], in test [4], in test [5] and in test [6] was more than 100 µM throughout. Further, the TGI in test [7], in [10] and in test [8] was more than 100 µM throughout.

In the case of `Cn1/c(=N\S(=O)(=O)c2ccccc2)n(S(=O)(=O)c2ccccc2)c2ccccc21`, the TGI in test [1], in test [2], in test [3], in test [4], in test [5] and in test [6] was more than 100 µM throughout. For the same molecule, the TGI in [7], in [10] and in test [8] was more than 100 µM throughout.

As for `CC(=C(C(N)=O)C(N)=O)C1C=C(c2cccs2)CC(c2ccc(Cl)cc2)=C1O` (stereo unspecified), the TGI in [1], in test [2], in test [3], in [4], in [5] and in test [9] was more than 100 µM in each case. The TGI in test [7], in test [10] and in test [8] was more than 100 µM each time.

Regarding `COc1cc(/C=C/C(=O)c2c(C)nc3ccccc3c2C)ccc1OCCCOc1cc2c(cc1OC)C(=O)N1CCC[C@H]1C=N2`, the GI50 in [2] was 0.187 µM; in test [3], 0.017 µM; in test [4], 0.393 µM; in test [5] it was 0.0227 µM; in test [9] it was 0.0367 µM; in [10] it was 0.028 µM. Also, in test [8], the GI50 was 0.0197 µM. In addition, the TGI in [3] came to 0.0321 µM; in test [4] it was 5.92 µM; in test [5], 0.0616 µM; in test [9], 0.275 µM; in [10] it was 3.03 µM; in test [8], 0.0459 µM.

Turning to `CCCCCCCCCCCCOP(=O)(O)OCC(N)C(=O)O` (stereo unspecified), the TGI in test [1] is 26.7 µM; in test [2], 44 µM; in test [4], more than 100 µM; in test [5], more than 100 µM; in test [6], more than 100 µM; in test [9] it was 43.3 µM. Further, the TGI in test [10] and in [8] was more than 100 µM in each case.
